Assay results as given in ChEMBL document CHEMBL5653631, “A Potent and Selective ULK1 Inhibitor Suppresses Autophagy and Sensitizes Cancer Cells to Nutrient Stress” (iScience, 2018).
pIC50: −log10 of the molar value.

How the values were obtained:
[1] = molecular target: T1, Serine/threonine-protein kinase ULK2 (Homo sapiens, UniProt Q8IYT8); assay: Inhibition of human ULK2
T1 sequence (Q8IYT8 whole entry): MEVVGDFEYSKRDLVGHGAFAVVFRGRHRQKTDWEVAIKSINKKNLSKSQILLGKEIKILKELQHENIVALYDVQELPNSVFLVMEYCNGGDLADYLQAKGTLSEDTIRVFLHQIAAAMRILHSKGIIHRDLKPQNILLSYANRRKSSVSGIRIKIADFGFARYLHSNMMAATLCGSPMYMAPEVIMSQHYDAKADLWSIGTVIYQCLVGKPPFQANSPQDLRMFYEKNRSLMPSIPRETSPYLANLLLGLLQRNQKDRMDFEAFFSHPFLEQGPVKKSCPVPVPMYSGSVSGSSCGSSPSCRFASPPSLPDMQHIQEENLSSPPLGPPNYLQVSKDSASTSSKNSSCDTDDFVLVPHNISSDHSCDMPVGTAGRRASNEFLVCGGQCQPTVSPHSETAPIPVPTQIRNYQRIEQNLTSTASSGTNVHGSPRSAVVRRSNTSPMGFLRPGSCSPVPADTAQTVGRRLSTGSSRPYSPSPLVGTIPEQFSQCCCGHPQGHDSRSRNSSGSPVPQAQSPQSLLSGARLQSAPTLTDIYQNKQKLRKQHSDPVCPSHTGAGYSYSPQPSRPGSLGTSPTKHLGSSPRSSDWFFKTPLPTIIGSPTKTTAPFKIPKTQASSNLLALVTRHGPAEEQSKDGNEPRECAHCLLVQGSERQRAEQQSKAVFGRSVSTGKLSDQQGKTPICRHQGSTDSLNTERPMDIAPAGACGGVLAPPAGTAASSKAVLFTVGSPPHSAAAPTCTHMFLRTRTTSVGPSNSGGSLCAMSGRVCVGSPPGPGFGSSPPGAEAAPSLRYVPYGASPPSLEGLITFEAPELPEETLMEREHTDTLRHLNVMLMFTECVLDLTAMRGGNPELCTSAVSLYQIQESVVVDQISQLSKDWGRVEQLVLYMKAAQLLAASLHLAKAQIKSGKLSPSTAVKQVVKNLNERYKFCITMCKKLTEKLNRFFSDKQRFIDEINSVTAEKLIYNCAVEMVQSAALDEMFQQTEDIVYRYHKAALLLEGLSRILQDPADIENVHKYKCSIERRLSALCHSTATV

[2] = molecular target: T2, Serine/threonine-protein kinase ULK1 (Homo sapiens) (UniProt O75385); assay: Inhibition of ULK1 phosphorylation at Ser15 residue in HEK293 cells incubated for 1 hr by chemiluminescence based immunoblotting analysis; type: cell-based; conditions: HEK293T, dose <= 20.0 µM
T2 sequence (whole entry): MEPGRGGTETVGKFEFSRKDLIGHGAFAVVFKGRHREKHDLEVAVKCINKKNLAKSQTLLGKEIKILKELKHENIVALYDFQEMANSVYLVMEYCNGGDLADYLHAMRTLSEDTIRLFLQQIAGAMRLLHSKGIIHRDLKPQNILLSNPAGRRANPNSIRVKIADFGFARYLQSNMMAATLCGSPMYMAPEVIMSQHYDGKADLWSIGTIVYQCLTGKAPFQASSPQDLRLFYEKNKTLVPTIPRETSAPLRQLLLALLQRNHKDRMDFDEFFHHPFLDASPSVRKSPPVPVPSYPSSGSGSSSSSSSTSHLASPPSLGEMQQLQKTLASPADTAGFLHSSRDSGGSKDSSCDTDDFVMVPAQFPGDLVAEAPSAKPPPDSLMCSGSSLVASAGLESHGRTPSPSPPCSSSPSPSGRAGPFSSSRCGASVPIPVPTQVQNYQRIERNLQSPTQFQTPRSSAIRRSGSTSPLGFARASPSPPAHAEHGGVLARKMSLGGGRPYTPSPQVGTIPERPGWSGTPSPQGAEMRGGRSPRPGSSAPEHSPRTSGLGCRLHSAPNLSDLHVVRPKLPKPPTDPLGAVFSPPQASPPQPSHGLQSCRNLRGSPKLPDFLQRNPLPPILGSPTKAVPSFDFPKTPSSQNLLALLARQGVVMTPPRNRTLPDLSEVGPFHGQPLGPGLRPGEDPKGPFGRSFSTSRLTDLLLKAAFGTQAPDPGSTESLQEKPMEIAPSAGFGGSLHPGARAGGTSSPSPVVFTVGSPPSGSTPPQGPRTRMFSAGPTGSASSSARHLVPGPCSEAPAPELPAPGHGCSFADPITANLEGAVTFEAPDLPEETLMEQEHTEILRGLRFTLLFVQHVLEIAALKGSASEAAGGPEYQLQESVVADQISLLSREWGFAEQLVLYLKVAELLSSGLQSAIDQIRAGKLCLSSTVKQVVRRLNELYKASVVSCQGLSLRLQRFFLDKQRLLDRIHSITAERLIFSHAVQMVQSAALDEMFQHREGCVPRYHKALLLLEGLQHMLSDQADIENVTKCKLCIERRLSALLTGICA

[3] = molecular target: eIF-2-alpha kinase GCN2 (Homo sapiens) (UniProt Q9P2K8); assay: Inhibition of human recombinant GCN2 at 500 nM related to control ULK1
[4] = molecular target: Death-associated protein kinase 3 (Homo sapiens) (UniProt O43293); assay: Inhibition of human recombinant DAPK3 at 15 nM related to control ULK1
[5] = molecular target: DNA-PK/Ku70/Ku85 (Homo sapiens) (UniProt P78527+P12956+P13010); assay: Inhibition of human recombinant DNAPK at 15 nM in presence of ATP by radiometric assay relative to control; type: protein-complex assay
[6] = molecular target: Phosphorylase b kinase gamma catalytic chain, skeletal muscle/heart isoform (Homo sapiens) (UniProt Q16816); assay: Inhibition of human recombinant PHKg1 at 15 nM in presence of ATP by radiometric assay relative to control
[7] = molecular target: RAF proto-oncogene serine/threonine-protein kinase (Homo sapiens) (UniProt P04049); assay: Inhibition of human recombinant RAF1 at 15 nM in presence of ATP by radiometric assay relative to control
Sequence of RAF proto-oncogene serine/threonine-protein kinase (Homo sapiens) (P04049 whole entry): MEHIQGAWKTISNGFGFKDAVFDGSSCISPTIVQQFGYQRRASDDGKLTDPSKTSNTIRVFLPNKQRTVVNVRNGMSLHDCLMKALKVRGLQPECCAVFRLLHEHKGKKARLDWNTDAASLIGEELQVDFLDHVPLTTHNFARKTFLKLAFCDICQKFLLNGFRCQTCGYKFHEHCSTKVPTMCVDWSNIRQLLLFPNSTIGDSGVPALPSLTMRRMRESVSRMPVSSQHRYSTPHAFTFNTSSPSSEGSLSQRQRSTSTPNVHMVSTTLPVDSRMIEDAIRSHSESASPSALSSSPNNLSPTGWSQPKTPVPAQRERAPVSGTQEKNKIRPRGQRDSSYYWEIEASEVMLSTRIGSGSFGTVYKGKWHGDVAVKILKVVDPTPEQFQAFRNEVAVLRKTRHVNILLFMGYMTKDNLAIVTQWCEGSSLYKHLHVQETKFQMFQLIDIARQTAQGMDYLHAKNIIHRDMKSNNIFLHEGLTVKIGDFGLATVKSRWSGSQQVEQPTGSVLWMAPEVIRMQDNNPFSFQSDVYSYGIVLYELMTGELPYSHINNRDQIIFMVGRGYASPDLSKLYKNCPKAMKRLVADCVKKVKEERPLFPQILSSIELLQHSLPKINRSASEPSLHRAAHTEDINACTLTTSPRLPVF

Sequence of Phosphorylase b kinase gamma catalytic chain, skeletal muscle/heart isoform (Homo sapiens) (Q16816 whole entry, looked up, canonical isoform): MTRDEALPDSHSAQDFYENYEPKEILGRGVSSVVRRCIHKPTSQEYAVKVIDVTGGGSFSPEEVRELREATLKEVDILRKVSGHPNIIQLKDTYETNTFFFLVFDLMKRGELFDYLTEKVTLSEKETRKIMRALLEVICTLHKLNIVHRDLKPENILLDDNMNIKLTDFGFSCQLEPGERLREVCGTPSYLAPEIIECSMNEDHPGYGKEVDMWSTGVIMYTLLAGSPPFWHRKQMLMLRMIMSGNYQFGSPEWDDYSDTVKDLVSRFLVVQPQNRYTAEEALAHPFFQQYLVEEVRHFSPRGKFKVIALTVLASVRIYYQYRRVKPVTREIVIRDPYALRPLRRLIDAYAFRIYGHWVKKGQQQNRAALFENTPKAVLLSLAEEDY
Sequence of eIF-2-alpha kinase GCN2 (Homo sapiens) (Q9P2K8 whole entry): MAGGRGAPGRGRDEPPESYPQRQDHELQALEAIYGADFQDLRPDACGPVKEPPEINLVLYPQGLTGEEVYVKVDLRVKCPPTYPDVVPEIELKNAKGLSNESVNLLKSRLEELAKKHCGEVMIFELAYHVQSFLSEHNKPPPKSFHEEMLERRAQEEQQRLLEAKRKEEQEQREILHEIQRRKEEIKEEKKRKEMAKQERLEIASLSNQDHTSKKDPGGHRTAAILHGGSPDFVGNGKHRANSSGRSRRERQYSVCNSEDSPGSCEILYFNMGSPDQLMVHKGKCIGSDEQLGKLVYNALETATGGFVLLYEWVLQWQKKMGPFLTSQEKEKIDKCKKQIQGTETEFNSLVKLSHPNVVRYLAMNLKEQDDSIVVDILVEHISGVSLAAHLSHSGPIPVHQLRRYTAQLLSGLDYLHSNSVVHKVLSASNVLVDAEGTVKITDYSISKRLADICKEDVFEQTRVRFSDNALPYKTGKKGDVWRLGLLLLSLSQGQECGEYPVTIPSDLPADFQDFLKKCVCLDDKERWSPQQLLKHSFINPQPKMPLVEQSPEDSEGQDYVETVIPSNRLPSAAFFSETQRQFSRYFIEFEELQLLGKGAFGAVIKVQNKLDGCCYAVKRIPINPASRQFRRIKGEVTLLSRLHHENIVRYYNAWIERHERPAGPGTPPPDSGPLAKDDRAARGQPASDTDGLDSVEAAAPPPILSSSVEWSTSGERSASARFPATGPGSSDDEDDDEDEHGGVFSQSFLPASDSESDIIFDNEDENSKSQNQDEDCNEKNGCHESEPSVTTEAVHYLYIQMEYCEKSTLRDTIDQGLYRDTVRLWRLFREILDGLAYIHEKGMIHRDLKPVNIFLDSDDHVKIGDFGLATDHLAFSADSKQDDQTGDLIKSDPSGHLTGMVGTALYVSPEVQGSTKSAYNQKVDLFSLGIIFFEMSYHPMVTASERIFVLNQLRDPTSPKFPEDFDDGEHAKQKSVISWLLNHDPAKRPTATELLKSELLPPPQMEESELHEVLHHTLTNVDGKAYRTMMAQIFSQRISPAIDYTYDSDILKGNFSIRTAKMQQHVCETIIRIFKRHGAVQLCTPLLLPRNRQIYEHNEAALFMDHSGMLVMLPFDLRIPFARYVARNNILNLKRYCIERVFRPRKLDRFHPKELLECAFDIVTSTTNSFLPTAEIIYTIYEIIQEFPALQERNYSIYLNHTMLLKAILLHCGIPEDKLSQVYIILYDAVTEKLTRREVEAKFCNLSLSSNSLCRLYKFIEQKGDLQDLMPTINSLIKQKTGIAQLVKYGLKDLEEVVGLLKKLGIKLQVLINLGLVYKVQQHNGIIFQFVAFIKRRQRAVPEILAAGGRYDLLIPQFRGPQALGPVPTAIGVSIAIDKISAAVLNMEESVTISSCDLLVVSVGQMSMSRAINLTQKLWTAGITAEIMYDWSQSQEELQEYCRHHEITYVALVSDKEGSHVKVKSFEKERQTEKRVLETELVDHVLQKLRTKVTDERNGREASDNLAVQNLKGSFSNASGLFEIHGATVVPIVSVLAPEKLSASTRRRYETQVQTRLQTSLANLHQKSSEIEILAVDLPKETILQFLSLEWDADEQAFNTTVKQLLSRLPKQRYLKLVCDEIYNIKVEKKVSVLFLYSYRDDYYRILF
Sequence of Death-associated protein kinase 3 (Homo sapiens) (O43293 whole entry, looked up): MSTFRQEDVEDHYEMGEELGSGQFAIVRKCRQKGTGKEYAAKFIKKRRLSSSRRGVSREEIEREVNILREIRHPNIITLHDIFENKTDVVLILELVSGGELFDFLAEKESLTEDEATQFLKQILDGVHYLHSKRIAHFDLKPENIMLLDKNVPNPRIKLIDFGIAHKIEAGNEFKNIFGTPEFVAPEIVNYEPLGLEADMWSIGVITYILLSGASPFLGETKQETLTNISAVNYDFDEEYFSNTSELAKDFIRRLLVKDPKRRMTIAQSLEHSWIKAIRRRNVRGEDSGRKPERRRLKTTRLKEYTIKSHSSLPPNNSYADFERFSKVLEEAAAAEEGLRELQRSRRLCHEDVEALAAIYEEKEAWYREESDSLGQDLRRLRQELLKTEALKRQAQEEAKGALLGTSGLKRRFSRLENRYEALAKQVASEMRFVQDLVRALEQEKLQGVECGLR

SMILES	pIC50 [1]	inhibition [2]	fold change (FC) [3]	fold change (FC) [4]	inhibition [5] [%]	inhibition [6] [%]	inhibition [7] [%]
O=C(N[C@@H](C1CC1)C(F)(F)F)c1cc(-c2cnn3cc(-c4ccc(F)cc4)cnc23)cs1	7.52	Dose-Dependent Effect					
CNC(=O)c1ccccc1Oc1nc(Nc2cc(OC)c(OC)c(OC)c2)ncc1Br	6.67	Dose-Dependent Effect	0.03				
CC(C)[C@H](NC(=O)c1cc(-c2cnn3cc(-c4ccc(OCCN5CCCCC5)cc4)cnc23)cs1)C(F)(F)F	8.59	Dose-Dependent Effect		0	0	51	8
